Counter-ions that a name gives are not always drawn.
biological target: hNav1.7 (Homo sapiens (Human), UniProt Q15858); test: Patch voltage clamp electrophysiology (EP), Syncropatch 384PE, CHO cells stably expressing Nav1.7; format: cell-based; details: holding potential −50 mV, 7.5 min compound incubation, read-out: EP_SP hNav1.7 EVO IC50
From the text: Example 64c. Electrophysiological Assay (EP) (In Vitro Assay)
Patch voltage clamp electrophysiology allows for the direct measurement and quantification of block of voltage-gated sodium channels (NaV's), and allows the determination of the time- and voltage-dependence of block which has been interpreted as differential binding to the resting, open, and inactivated states of the sodium channel (Hille, B., Journal of General Physiology (1977), 69: 497-515).
The following voltage clamp electrophysiology studies are performed on representative compounds using cells heterologously expressing Nav1.7 or Nav1.5 channels. cDNAs for Nav1.7 (NM_002977) and Nav1.5 (AC137587) are stably expressed in Chinese Hamstr Ovary (CHO) cells and CHL (Chinese Hamster Lung) cells respectively. Sodium currents are measured in the whole-cell configuration using Syncropatch 384PE (Nanlon Technologies, Germany). 1NPC®-384 chips with custom medium resistance and single hole mode are used. Internal solution consists of (in mM): […], 10 CsCl, 20 EGTA, and 10 Hepes (pH adjusted to 7.2); and external solution contains (in mM): 60 NMDG, 80 NaCl, 4 KCl, 1 MgCl2, 2 CaCl2, 2 D-Glucose monohydrate, 10 Hepes (pH adjusted to 7.4 with NaOH).
After system flushing, testing compounds are dissolved in external solution containing 0.1% Pluronic F-127. The chip is moved into the measuring head and the instrument primes the chip with external and internal solutions. 10 μl cells are added to the chip from a cell hotel, and a negative pressure of −50 mBar is applied to form a seal. Following treatment with seal enhancer solution and wash-off with external solution, negative pressure of −250 mbar is applied for 1 second to achieve the whole-cell configuration, followed by three washing steps in external solution. 20 μl of compounds is added to 40 μl in each well (1:3 dilution of compounds), and after mixing, 20 μl is removed so the volume is retained at 40 ul. After approximately 13 minutes recordings, 20 μl/well of 2 uM TTX, or 333 uM Tetracaine (for […]) is added to achieve full block.
For voltage protocol, an holding potential of −50 mV is applied during the whole experiment. A depolarizing step is applied to −10 mV for 10 ms, followed by a hyperpolarization step to −150 mV for 20 ms to allow channel recovery from inactivation. A second depolarizing step is applied from −150 mV to −10 mV for 10 ms, where currents are measured to derive blocking effects of compounds. Inhibition is determined based on 7.5 min of compound incubation.

hNav1.7, sequence (Q15858 other isoform, or with tags, fused parts or gaps): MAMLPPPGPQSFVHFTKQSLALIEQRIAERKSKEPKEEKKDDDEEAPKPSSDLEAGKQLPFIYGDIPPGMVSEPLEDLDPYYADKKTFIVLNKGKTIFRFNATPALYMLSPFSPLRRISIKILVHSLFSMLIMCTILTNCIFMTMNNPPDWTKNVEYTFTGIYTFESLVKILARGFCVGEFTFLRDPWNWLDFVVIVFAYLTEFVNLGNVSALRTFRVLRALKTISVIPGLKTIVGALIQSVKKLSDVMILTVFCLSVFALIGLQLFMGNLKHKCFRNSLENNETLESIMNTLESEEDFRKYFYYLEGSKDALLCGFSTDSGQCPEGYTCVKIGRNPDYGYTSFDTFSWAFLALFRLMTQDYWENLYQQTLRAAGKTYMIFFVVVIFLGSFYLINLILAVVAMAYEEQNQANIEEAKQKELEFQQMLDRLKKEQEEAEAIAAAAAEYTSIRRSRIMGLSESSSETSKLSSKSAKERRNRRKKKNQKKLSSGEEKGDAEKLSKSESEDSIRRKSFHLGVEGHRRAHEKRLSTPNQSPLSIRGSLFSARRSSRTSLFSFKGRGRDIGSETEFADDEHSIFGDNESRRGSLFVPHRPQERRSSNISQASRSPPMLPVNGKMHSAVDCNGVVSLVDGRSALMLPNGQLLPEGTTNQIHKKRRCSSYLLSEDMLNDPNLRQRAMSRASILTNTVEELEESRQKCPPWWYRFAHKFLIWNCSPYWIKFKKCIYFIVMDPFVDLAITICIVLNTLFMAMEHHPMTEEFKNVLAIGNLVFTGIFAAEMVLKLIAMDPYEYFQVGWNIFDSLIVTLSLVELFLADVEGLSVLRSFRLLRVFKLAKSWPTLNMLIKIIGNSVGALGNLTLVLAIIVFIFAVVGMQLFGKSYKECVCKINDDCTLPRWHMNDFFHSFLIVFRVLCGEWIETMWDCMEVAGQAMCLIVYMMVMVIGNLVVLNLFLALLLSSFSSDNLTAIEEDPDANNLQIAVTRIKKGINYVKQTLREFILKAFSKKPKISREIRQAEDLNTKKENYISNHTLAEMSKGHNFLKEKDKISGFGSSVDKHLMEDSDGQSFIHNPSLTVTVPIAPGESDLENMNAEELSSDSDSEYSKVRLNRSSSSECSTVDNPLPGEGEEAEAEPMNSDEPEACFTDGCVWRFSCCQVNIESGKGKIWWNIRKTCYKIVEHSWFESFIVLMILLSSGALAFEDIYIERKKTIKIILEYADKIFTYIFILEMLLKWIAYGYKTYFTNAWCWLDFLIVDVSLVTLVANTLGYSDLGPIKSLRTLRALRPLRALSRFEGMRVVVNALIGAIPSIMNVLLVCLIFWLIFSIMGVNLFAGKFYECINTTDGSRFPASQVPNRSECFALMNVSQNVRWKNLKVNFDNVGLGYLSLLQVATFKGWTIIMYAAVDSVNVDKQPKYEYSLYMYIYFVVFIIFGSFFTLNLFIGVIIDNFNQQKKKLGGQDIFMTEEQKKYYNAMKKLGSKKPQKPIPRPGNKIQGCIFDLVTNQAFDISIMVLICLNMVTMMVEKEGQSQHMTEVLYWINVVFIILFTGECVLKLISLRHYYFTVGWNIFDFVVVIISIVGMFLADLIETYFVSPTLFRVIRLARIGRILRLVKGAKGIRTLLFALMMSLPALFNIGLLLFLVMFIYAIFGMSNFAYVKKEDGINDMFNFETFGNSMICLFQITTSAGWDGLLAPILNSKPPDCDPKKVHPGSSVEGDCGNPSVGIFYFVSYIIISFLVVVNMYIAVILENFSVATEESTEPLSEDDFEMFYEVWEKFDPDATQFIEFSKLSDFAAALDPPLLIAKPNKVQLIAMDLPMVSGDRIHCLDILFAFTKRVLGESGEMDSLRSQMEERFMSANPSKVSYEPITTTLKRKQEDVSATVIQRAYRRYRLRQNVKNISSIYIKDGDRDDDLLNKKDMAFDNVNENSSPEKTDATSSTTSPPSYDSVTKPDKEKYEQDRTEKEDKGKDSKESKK

Structure (SMILES)	IC50
Cc1nc(O[C@H]2CC[C@H](c3cccc(OC(F)(F)F)c3)C[C@@H]2N(C)C)ccc1S(=O)(=O)Nc1ccncn1 [Example 28, 6-(((1S,2S,4S)-2-(Dimethylamino)-4-(3-(trifluoromethoxy)phenyl)cyclohexyl)oxy)-2-methyl-N-(pyrimidin-4-yl)pyridine-3-sulfonamide]	0.664 nM
Cc1nc(O[C@H]2CC[C@H](c3cccc(C(F)(F)F)c3)C[C@@H]2N2CCCC2)ccc1S(=O)(=O)Nc1ccncn1 [Example 29, 2-Methyl-N-(pyrimidin-4-yl)-6-(((1S,2S,4S)-2-(pyrrolidin-1-yl)-4-(3-(trifluoromethyl)phenyl)-cyclohexyl)oxy)pyridine-3-sulfonamide]	5.62 nM
Cc1nc(O[C@H]2CC[C@H](c3cccc(OC(F)(F)F)c3)C[C@@H]2N2CCCC2)ccc1S(=O)(=O)Nc1ccncn1 [Example 30, 2-Methyl-N-(pyrimidin-4-yl)-6-(((1S,2S,4S)-2-(pyrrolidin-1-yl)-4-(3-(trifluoromethoxy)phenyl)-cyclohexyl)oxy)pyridine-3-sulfonamide]	1.07 nM
CN(C)[C@H]1C[C@@H](c2cccc(C(F)(F)F)c2)CC[C@@H]1Oc1cc(Cl)c(S(=O)(=O)Nc2ccncn2)cn1 [Example 31, 4-Chloro-6-(((1S,2S,4S)-2-(dimethylamino)-4-(3-(trifluoromethyl)phenyl)cyclohexyl)oxy)-N-(pyrimidin-4-yl)pyridine-3-sulfonamide]	10 nM
Cc1cc(O[C@H]2CC[C@H](c3cccc(C(F)(F)F)c3)C[C@@H]2N(C)C)ncc1S(=O)(=O)Nc1ccncn1 [Example 32, 6-(((1S,2S,4S)-2-(Dimethylamino)-4-(3-(trifluoromethyl)phenyl)cyclohexyl)oxy)-4-methyl-N-(pyrimidin-4-yl)pyridine-3-sulfonamide]	37.1 nM
CCc1nc(O[C@H]2CC[C@H](c3cccc(C(F)(F)F)c3)C[C@@H]2N(C)C)ccc1S(=O)(=O)Nc1ccncn1 [Example 33, 6-(((1S,2S,4S)-2-(Dimethylamino)-4-(3-(trifluoromethyl)phenyl)cyclohexyl)oxy)-2-ethyl-N-(pyrimidin-4-yl)pyridine-3-sulfonamide]	16.3 nM
CN(C)[C@H]1C[C@@H](c2cccc(C(F)(F)F)c2)CC[C@@H]1Oc1ccc(S(=O)(=O)Nc2ccncn2)c(C2CC2)n1 [Example 34, 2-Cyclopropyl-6-(((1S,2S,4S)-2-(dimethylamino)-4-(3-(trifluoromethyl)phenyl)-cyclohexyl)oxy)-N-(pyrimidin-4-yl)pyridine-3-sulfonamide]	154 nM
Cc1nc(O[C@H]2CC[C@H](c3cccc(C(F)(F)F)c3)C[C@@H]2N(C)C2CCC2)ccc1S(=O)(=O)Nc1ccncn1 [Example 35, 6-(((1S,2S,4S)-2-(Cyclobutyl(methyl)amino)-4-(3-(trifluoromethyl)phenyl)cyclohexyl)oxy)-2-methyl-N-(pyrimidin-4-yl)pyridine-3-sulfonamide]	0.597 nM
Cc1nc(O[C@H]2CC[C@H](c3ccc(Cl)c(C(F)(F)F)c3)C[C@@H]2N(C)C)ccc1S(=O)(=O)Nc1ccncn1 [Example 36, 6-(((1S,2S,4S)-4-(4-chloro-3-(trifluoromethyl)phenyl)-2-(dimethylamino)cyclohexyl)oxy)-2-methyl-N-(pyrimidin-4-yl)pyridine-3-sulfonamide]	0.247 nM
Cc1nc(O[C@H]2CC[C@H](c3cc(C(F)(F)F)ccc3Cl)C[C@@H]2N(C)C)ccc1S(=O)(=O)Nc1ccncn1 [Example 38, 6-(((1S,2S,4S)-4-(2-chloro-5-(trifluoromethyl)phenyl)-2-(dimethylamino)cyclohexyl)oxy)-2-methyl-N-(pyrimidin-4-yl)pyridine-3-sulfonamide]	0.409 nM
Cc1nc(O[C@H]2CC[C@H](c3cc(Cl)ccc3Cl)C[C@@H]2N(C)C)ccc1S(=O)(=O)Nc1ccncn1 [Example 39, 6-(((1S,2S,4S)-4-(2,5-dichlorophenyl)-2-(dimethylamino)cyclohexyl)oxy)-2-methyl-N-(pyrimidin-4-yl)pyridine-3-sulfonamide formate]	0.645 nM

Reference: patent US20250115576A1, “THERAPEUTIC COMPOUNDS AND METHODS OF USE THEREOF” (Genentech, Inc., priority 2018, published 2025)
